{"source": "ChEMBL document CHEMBL1201862", "about": "“PubChem BioAssay data set” (2004)", "assay_in_all_cases": "NCI tumour cell line growth inhibition, 48 h", "key": {"HOP-62": {"system": "HOP-62"}, "K562": {"system": "K562"}, "NCI/ADR-RES": {"system": "NCI/ADR-RES"}, "PC-3": {"system": "PC-3"}, "MCF7": {"system": "MCF7"}, "HL-60": {"system": "HL-60"}, "LOX IMVI": {"system": "LOX IMVI"}, "OVCAR-5": {"system": "OVCAR-5"}, "OVCAR-4": {"system": "OVCAR-4"}, "CCRF-CEM": {"system": "CCRF-CEM"}, "NCI-H226": {"system": "NCI-H226"}, "NCI-H23": {"system": "NCI-H23"}, "DU-145": {"system": "DU-145"}, "SNB-19": {"system": "SNB-19"}, "KM12": {"system": "KM12"}, "CAKI-1": {"system": "CAKI-1"}, "SK-MEL-28": {"system": "SK-MEL-28"}, "SF-539": {"system": "SF-539"}, "SR": {"system": "SR"}}, "note": "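Five compound concentrations were applied to cells in 96-well plates for 48 hours; endpoints were derived by simple linear interpolation of the resulting dose-response curve. Abbreviation: GI50, concentration required for 50% inhibition of growth.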 Activity calls are given as the source filed them. Cut-off read from the data, not from the text of the source: active = GI50 up to about 1.1 µM and inactive = higher.", "data": [{"smiles": "O=c1sc2c(s1)-c1sc(=O)sc1SS2", "values": [{"measurement": "GI50", "setting": "HOP-62", "result": "> 100 µM (inactive)"}, {"measurement": "GI50", "setting": "K562", "result": "55.5 µM (inactive)"}, {"measurement": "GI50", "setting": "NCI/ADR-RES", "result": "26.7 µM (inactive)"}, {"measurement": "GI50", "setting": "PC-3", "result": "> 100 µM (inactive)"}, {"measurement": "GI50", "setting": "MCF7", "result": "> 100 µM (inactive)"}, {"measurement": "GI50", "setting": "HL-60", "result": "> 100 µM (inactive)"}, {"measurement": "GI50", "setting": "LOX IMVI", "result": "> 60.4 µM (inactive)"}, {"measurement": "GI50", "setting": "OVCAR-5", "result": "34.1 µM (inactive)"}, {"measurement": "GI50", "setting": "OVCAR-4", "result": "> 100 µM (inactive)"}, {"measurement": "GI50", "setting": "CCRF-CEM", "result": "> 54.8 µM (inactive)"}, {"measurement": "GI50", "setting": "NCI-H226", "result": "38.6 µM (inactive)"}, {"measurement": "GI50", "setting": "NCI-H23", "result": "> 37.5 µM (inactive)"}, {"measurement": "GI50", "setting": "DU-145", "result": "> 54 µM (inactive)"}, {"measurement": "GI50", "setting": "SNB-19", "result": "> 100 µM (inactive)"}, {"measurement": "GI50", "setting": "KM12", "result": "> 100 µM (inactive)"}, {"measurement": "GI50", "setting": "CAKI-1", "result": "> 100 µM (inactive)"}, {"measurement": "GI50", "setting": "SK-MEL-28", "result": "> 100 µM (inactive)"}, {"measurement": "GI50", "setting": "SF-539", "result": "41.5 µM (inactive)"}]}, {"smiles": "O=C(/C=C/c1csc(-c2ccccc2)n1)NCc1ccc(C(=O)NCCc2ccccc2)cc1", "values": [{"measurement": "GI50", "setting": "HOP-62", "result": "2.64 µM (inactive)"}, {"measurement": "GI50", "setting": "K562", "result": "> 100 µM (inactive)"}, {"measurement": "GI50", "setting": "NCI/ADR-RES", "result": "11.6 µM (inactive)"}, {"measurement": "GI50", "setting": "PC-3", "result": "49.4 µM (inactive)"}, {"measurement": "GI50", "setting": "MCF7", "result": "72.3 µM (inactive)"}, {"measurement": "GI50", "setting": "LOX IMVI", "result": "79.4 µM (inactive)"}, {"measurement": "GI50", "setting": "OVCAR-5", "result": "73.3 µM (inactive)"}, {"measurement": "GI50", "setting": "OVCAR-4", "result": "24.5 µM (inactive)"}, {"measurement": "GI50", "setting": "CCRF-CEM", "result": "> 100 µM (inactive)"}, {"measurement": "GI50", "setting": "NCI-H226", "result": "25.5 µM (inactive)"}, {"measurement": "GI50", "setting": "SR", "result": "> 100 µM (inactive)"}, {"measurement": "GI50", "setting": "NCI-H23", "result": "29.7 µM (inactive)"}, {"measurement": "GI50", "setting": "DU-145", "result": "88.5 µM (inactive)"}, {"measurement": "GI50", "setting": "SNB-19", "result": "11.4 µM (inactive)"}, {"measurement": "GI50", "setting": "KM12", "result": "61.1 µM (inactive)"}, {"measurement": "GI50", "setting": "CAKI-1", "result": "15.6 µM (inactive)"}, {"measurement": "GI50", "setting": "SK-MEL-28", "result": "24 µM (inactive)"}]}, {"smiles": "COc1cc(C2SCCCCCCCCCCSC(c3ccc(O)c(OC)c3)SCCCCCCCCCCS2)ccc1O", "note": "(stereo unspecified)", "values": [{"measurement": "GI50", "setting": "HOP-62", "result": "> 100 µM (inactive)"}, {"measurement": "GI50", "setting": "K562", "result": "> 100 µM (inactive)"}, {"measurement": "GI50", "setting": "NCI/ADR-RES", "result": "> 100 µM (inactive)"}, {"measurement": "GI50", "setting": "PC-3", "result": "> 100 µM (inactive)"}, {"measurement": "GI50", "setting": "MCF7", "result": "> 100 µM (inactive)"}, {"measurement": "GI50", "setting": "LOX IMVI", "result": "> 100 µM (inactive)"}, {"measurement": "GI50", "setting": "OVCAR-5", "result": "> 100 µM (inactive)"}, {"measurement": "GI50", "setting": "OVCAR-4", "result": "> 100 µM (inactive)"}, {"measurement": "GI50", "setting": "CCRF-CEM", "result": "< 0.01 µM (active)"}, {"measurement": "GI50", "setting": "NCI-H226", "result": "> 100 µM (inactive)"}, {"measurement": "GI50", "setting": "SR", "result": "56.1 µM (inactive)"}, {"measurement": "GI50", "setting": "NCI-H23", "result": "> 100 µM (inactive)"}, {"measurement": "GI50", "setting": "DU-145", "result": "> 100 µM (inactive)"}, {"measurement": "GI50", "setting": "SNB-19", "result": "> 100 µM (inactive)"}, {"measurement": "GI50", "setting": "KM12", "result": "> 100 µM (inactive)"}, {"measurement": "GI50", "setting": "CAKI-1", "result": "> 100 µM (inactive)"}, {"measurement": "GI50", "setting": "SK-MEL-28", "result": "> 100 µM (inactive)"}]}, {"smiles": "COC(=O)C1C/C(=C/N(C)C)C(=S)N1", "note": "(stereo unspecified)", "values": [{"measurement": "GI50", "setting": "HOP-62", "result": "> 100 µM (inactive)"}, {"measurement": "GI50", "setting": "K562", "result": "> 100 µM (inactive)"}, {"measurement": "GI50", "setting": "NCI/ADR-RES", "result": "> 100 µM (inactive)"}, {"measurement": "GI50", "setting": "PC-3", "result": "> 100 µM (inactive)"}, {"measurement": "GI50", "setting": "MCF7", "result": "> 100 µM (inactive)"}, {"measurement": "GI50", "setting": "OVCAR-5", "result": "> 100 µM (inactive)"}, {"measurement": "GI50", "setting": "OVCAR-4", "result": "> 100 µM (inactive)"}, {"measurement": "GI50", "setting": "CCRF-CEM", "result": "> 100 µM (inactive)"}, {"measurement": "GI50", "setting": "SR", "result": "> 100 µM (inactive)"}, {"measurement": "GI50", "setting": "NCI-H23", "result": "> 100 µM (inactive)"}, {"measurement": "GI50", "setting": "DU-145", "result": "> 100 µM (inactive)"}, {"measurement": "GI50", "setting": "SNB-19", "result": "> 100 µM (inactive)"}, {"measurement": "GI50", "setting": "KM12", "result": "> 100 µM (inactive)"}, {"measurement": "GI50", "setting": "CAKI-1", "result": "> 100 µM (inactive)"}, {"measurement": "GI50", "setting": "SK-MEL-28", "result": "> 100 µM (inactive)"}]}, {"smiles": "Cc1ccc(S(=O)(=O)Oc2cc(N)c3c(n2)CCC3)cc1", "values": [{"measurement": "GI50", "setting": "HOP-62", "result": "> 100 µM (inactive)"}, {"measurement": "GI50", "setting": "K562", "result": "67 µM (inactive)"}, {"measurement": "GI50", "setting": "NCI/ADR-RES", "result": "79.8 µM (inactive)"}, {"measurement": "GI50", "setting": "PC-3", "result": "> 100 µM (inactive)"}, {"measurement": "GI50", "setting": "MCF7", "result": "> 100 µM (inactive)"}, {"measurement": "GI50", "setting": "HL-60", "result": "43.2 µM (inactive)"}, {"measurement": "GI50", "setting": "LOX IMVI", "result": "> 100 µM (inactive)"}, {"measurement": "GI50", "setting": "OVCAR-5", "result": "> 100 µM (inactive)"}, {"measurement": "GI50", "setting": "OVCAR-4", "result": "34.4 µM (inactive)"}, {"measurement": "GI50", "setting": "CCRF-CEM", "result": "64.1 µM (inactive)"}, {"measurement": "GI50", "setting": "NCI-H226", "result": "36.8 µM (inactive)"}, {"measurement": "GI50", "setting": "NCI-H23", "result": "> 100 µM (inactive)"}, {"measurement": "GI50", "setting": "DU-145", "result": "> 100 µM (inactive)"}, {"measurement": "GI50", "setting": "SNB-19", "result": "> 100 µM (inactive)"}, {"measurement": "GI50", "setting": "KM12", "result": "> 100 µM (inactive)"}, {"measurement": "GI50", "setting": "CAKI-1", "result": "> 100 µM (inactive)"}, {"measurement": "GI50", "setting": "SK-MEL-28", "result": "> 100 µM (inactive)"}, {"measurement": "GI50", "setting": "SF-539", "result": "> 100 µM (inactive)"}]}, {"smiles": "COc1ccc(/C=C2\\NC(=S)N(CN3CCOCC3)C2=O)cc1", "values": [{"measurement": "GI50", "setting": "HOP-62", "result": "> 100 µM (inactive)"}, {"measurement": "GI50", "setting": "K562", "result": "> 100 µM (inactive)"}, {"measurement": "GI50", "setting": "NCI/ADR-RES", "result": "> 100 µM (inactive)"}, {"measurement": "GI50", "setting": "PC-3", "result": "> 100 µM (inactive)"}, {"measurement": "GI50", "setting": "MCF7", "result": "> 100 µM (inactive)"}, {"measurement": "GI50", "setting": "LOX IMVI", "result": "> 100 µM (inactive)"}, {"measurement": "GI50", "setting": "OVCAR-5", "result": "> 100 µM (inactive)"}, {"measurement": "GI50", "setting": "OVCAR-4", "result": "> 100 µM (inactive)"}, {"measurement": "GI50", "setting": "CCRF-CEM", "result": "> 100 µM (inactive)"}, {"measurement": "GI50", "setting": "NCI-H226", "result": "> 100 µM (inactive)"}, {"measurement": "GI50", "setting": "SR", "result": "> 100 µM (inactive)"}, {"measurement": "GI50", "setting": "NCI-H23", "result": "> 100 µM (inactive)"}, {"measurement": "GI50", "setting": "DU-145", "result": "> 100 µM (inactive)"}, {"measurement": "GI50", "setting": "SNB-19", "result": "> 100 µM (inactive)"}, {"measurement": "GI50", "setting": "KM12", "result": "> 100 µM (inactive)"}, {"measurement": "GI50", "setting": "SK-MEL-28", "result": "> 100 µM (inactive)"}]}]}
